Data published in patent US7550456B2, “Substituted aryl cycloalkanoyl derivatives and methods of their use” (Wyeth, priority 2003, dated 2009).
Counter-ions that a name gives are not always drawn.

These compounds were tested against T1, human hNET (Homo sapiens, UniProt P23975) (assay: Norepinephrine (NE) uptake assay in MDCK-Net6 cells). Conditions: 1 μM test compound, [3H]NE uptake, dihydrochloride, 1 µM.
T1 construct: expressed in transfected cells; host or cells: MDCK-Net6 (MDCK cells, stably transfected)
Format: cell-based
In short: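 Radiolabelled NE uptake was counted by scintillation after NaOH lysis, with 1 µM desipramine defining non-specific uptake. EC50 came from a logistic dose-response fit.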

T1 sequence (P23975 whole entry): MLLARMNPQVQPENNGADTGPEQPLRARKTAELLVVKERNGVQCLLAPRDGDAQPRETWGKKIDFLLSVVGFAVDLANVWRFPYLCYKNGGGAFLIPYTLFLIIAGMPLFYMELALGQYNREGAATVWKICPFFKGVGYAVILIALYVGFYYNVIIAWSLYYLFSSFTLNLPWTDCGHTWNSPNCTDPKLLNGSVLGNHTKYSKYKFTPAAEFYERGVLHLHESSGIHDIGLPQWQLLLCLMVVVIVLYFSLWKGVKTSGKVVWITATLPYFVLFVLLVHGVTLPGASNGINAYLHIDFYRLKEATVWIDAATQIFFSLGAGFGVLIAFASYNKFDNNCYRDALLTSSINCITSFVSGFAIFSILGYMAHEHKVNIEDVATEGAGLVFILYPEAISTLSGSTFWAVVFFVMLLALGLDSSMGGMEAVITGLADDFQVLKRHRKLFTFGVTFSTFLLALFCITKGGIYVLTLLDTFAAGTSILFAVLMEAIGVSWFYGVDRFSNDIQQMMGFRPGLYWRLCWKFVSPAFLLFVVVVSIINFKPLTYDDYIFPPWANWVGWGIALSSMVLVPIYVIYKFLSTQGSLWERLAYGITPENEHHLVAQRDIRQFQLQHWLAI

| Compound | % Inhibition @ 1 μM (hNET) [%] |
| --- | --- |
| OC1([C@H](CN2CCNCC2)c2cccc(OC(F)(F)F)c2)CCCCC1 [Example 243, 1-{(1S)-2-piperazin-1-yl-1-[3-(trifluoromethoxy)phenyl]ethyl}cyclohexanol dihydrochloride] | 91 |

Same assay, conditions: 1 μM test compound, [3H]NE uptake, read-out: % Inhibition @ 1 μM (hNET)

| Compound | inhibition at 1 µM [%] |
| --- | --- |
| C[C@@H](c1ccccc1)N1CCN(C[C@H](c2cccc(OC(F)(F)F)c2)C2(O)CCCCC2)CC1 [Example 363, 1-{(1S)-2-{4-[(1S)-1-phenylethyl]piperazin-1-yl}-1-[3-(trifluoromethoxy)phenyl]ethyl}cyclohexanol dihydrochloride] | 42 |
| CC(C)(CO)N1CCN(CC(c2cccc(OC(F)(F)F)c2)C2(O)CCCCC2)CC1 (stereo not shown) [Example 373, 1-{2-[4-(2-hydroxy-1,1-dimethylethyl)piperazin-1-yl]-1-[3-(trifluoromethoxy)phenyl]ethyl}cyclohexanol dihydrochloride] | 90 |
| O=[N+]([O-])c1cccc(-c2ccc(C(CN3CCNCC3)C3(O)CCCCC3)cc2)c1 (stereo not shown) [Example 169, 1-[1-(3′-nitro-1,1′-biphenyl-4-yl)-2-piperazin-1-ylethyl]cyclohexanol dihydrochloride] | 69 |
| CC#Cc1cccc(C(CN2CCNCC2)C2(O)CCCCC2)c1 (stereo not shown) [Example 300, 1-[2-piperazin-1-yl-1-(3-prop-1-ynylphenyl)ethyl]cyclohexanol dihydrochloride] | 38 |
| COc1ccc(C(CN2CCNCC2)C2(O)CCCCC2)cc1-c1ccccc1 (stereo not shown) [Example 254, 1-[1-(6-methoxy-1,1′-biphenyl-3-yl)-2-piperazin-1-ylethyl]cyclohexanol dihydrochloride] | 29 |
| CC(C)COc1ccc(C(CN2CCNCC2)C2(O)CCCCC2)cc1OC(F)(F)F (stereo not shown) [Example 406, 1-{1-[4-isobutoxy-3-(trifluoromethoxy)phenyl]-2-piperazin-1-ylethyl}cyclohexanol dihydrochloride] | 22 |
| COc1ccc(C(CN2CCNCC2)C2(O)CCCCC2)cc1-c1ccc(Cl)c(Cl)c1 (stereo not shown) [Example 252, 1-[1-(3′,4′-dichloro-6-methoxy-1,1′-biphenyl-3-yl)-2-piperazin-1-ylethyl]cyclohexanol dihydrochloride] | 35 |
| C#Cc1cccc(C(CN2CCNCC2)C2(O)CCCCC2)c1 (stereo not shown) [Example 298, 1-[1-(3-ethynylphenyl)-2-piperazin-1-ylethyl]cyclohexanol dihydrochloride] | 91 |

The remaining lines, values ahead:

| inhibition at 1 µM [%] | Compound |
| --- | --- |
| 41 | OC1(C(CN2CCNCC2)c2ccc(OC(F)(F)F)cc2)CCC1 (stereo not shown) [Example 304, 1-{2-piperazin-1-yl-1-[4-(trifluoromethoxy)phenyl]ethyl}cyclobutanol dihydrochloride] |
| 96 | CN1CCN(CC(c2ccc(OCc3ccccc3)c(Cl)c2)C2(O)CCCCC2)CC1 (stereo not shown) [Example 293, 1-[1-[4-(benzyloxy)-3-chlorophenyl]-2-(4-methylpiperazin-1-yl)ethyl]cyclohexanol dihydrochloride] |
| 78.6 | OC1(C(CN2CCN(CC3CCCCC3)CC2)c2ccc(OC(F)(F)F)cc2)CCCCC1 (stereo not shown) [Example 286, 1-{2-[4-(cyclohexylmethyl)piperazin-1-yl]-1-[4-(trifluoromethoxy)phenyl]ethyl}cyclohexanol dihydrochloride] |
| 99 | COc1cccc(COc2ccc(C(CN3CCN(C)CC3)C3(O)CCCCC3)cc2Cl)c1 (stereo not shown) [Example 455, 1-[1-{3-chloro-4-[(3-methoxybenzyl)oxy]phenyl}-2-(4-methylpiperazin-1-yl)ethyl]cyclohexanol dihydrochloride] |
| 28 | CN1CCN(CC(c2ccc(-c3cccc(Cl)c3)cc2)C2(O)CCCCC2)CC1 (stereo not shown) [Example 176, 1-[1-(3′-chloro-1,1′-biphenyl-4-yl)-2-(4-methylpiperazin-1-yl)ethyl]cyclohexanol dihydrochloride] |
| 27 | OC1(C(CN2CCNCC2)c2ccc(-c3cc(Cl)cc(Cl)c3)cc2)CCC1 (stereo not shown) [Example 185, 1-[1-(3′,5′-dichloro-1,1′-biphenyl-4-yl)-2-piperazin-1-ylethyl]cyclobutanol dihydrochloride] |

Same assay, conditions: [3H]NE uptake, test range 1 to 10,000 nM

| EC50 [µM] | Compound |
| --- | --- |
| 0.85 | O=[N+]([O-])c1cccc(-c2ccc(C(CN3CCNCC3)C3(O)CCCCC3)cc2)c1 (stereo not shown) [Example 169, 1-[1-(3′-nitro-1,1′-biphenyl-4-yl)-2-piperazin-1-ylethyl]cyclohexanol dihydrochloride] |
